Test results from EP0505220A1, “New compounds for use in the treatment of cancer” (JARMAN, Michael, priority 1991, dated 1992).

Experiments:
[1] = tested on: ADJ/PC6 tumour; experiment: Antitumour activity towards the ADJ/PC6 tumour in mice; type: in vivo; conditions: for Highest % inhibition: dose (mg/kg)
[2] = tested on: H69 human small cell lung cancer cell line; experiment: Activity in vitro towards H69 cell line; type: cell-based; conditions: NCI-H69, at least in duplicate, read-out: IC₅₀ H69
Method: (§1) Results expressed as µM (IC₅₀ values). All experiments were conducted at least in duplicate.

[3] = tested on: GCT/CIS R 6-fold platinum resistant variant of above; experiment: Activity in vitro towards GCT/CIS R cell line; type: cell-based; conditions: Homo sapiens; 6-fold platinum resistant variant of GCT; at least in duplicate; read-out: IC₅₀ GCT/CIS R
Method: as §1

[4] = tested on: L-1210 murine lymphocytic leukaemia; experiment: Activity in vitro towards L-1210 cell line; type: cell-based; conditions: Mus musculus, L1210, at least in duplicate, read-out: IC₅₀ L-1210
Method: as §1

[5] = tested on: GCT human testicular germ cell tumour cell line; experiment: Activity in vitro towards GCT cell line; type: cell-based; conditions: at least in duplicate, read-out: IC₅₀ GCT
Method: as §1

[6] = tested on: PC6 Murine plasmacytoma; experiment: Activity in vitro towards PC6 cell line; type: cell-based; conditions: for IC50: PC-6, PC6 Murine plasmacytoma, at least in duplicate, read-out: IC₅₀ PC6
Method: as §1

[7] = Judson et al. 1989; cited from earlier work
[8] = Toxicity (LD50) in the ADJ/PC6 mouse study; conditions: in vivo
[9] = tested on: cisplatin-resistant cell-lines; experiment: Activity in vitro towards cisplatin-resistant cell lines; type: cell-based, human; conditions: Table 4 (image)
Description: Of particular interest is that compounds (5) and (13) show high activity against cisplatin-resistant cell-lines.

[10] = tested on: human ovarian tumour cell lines; experiment: Activity in vitro towards ovarian cell lines; type: cell-based; conditions: Table 4 (image)
[11] = Stability of the hydroxymethyl function in human plasma (HPLC); type: in vitro ADME; conditions: human plasma at 37°C, 100 µg/ml; read-out: half-life values for the release of product (9) in human plasma
Method: Stability Studies. The influence of the trifluoromethyl substituent on the stability of the hydroxymethyl function under simulated physiological conditions was determined for compound (10) containing contiguous hydroxymethyl and […] functions. General Procedure (for 10). To fresh human plasma (9.9 ml) pre-warmed to 37°C was added a solution of the compound to be studied in dimethylsulphoxide (0.1 ml; 10mg/ml) to give a final concentration of 100 µg/ml. At intervals of 0, 5, 10, 15, 20, 30, 40, 50, 60, 75, 90, 105 and 120 min, aliquots (0.5 ml) were withdrawn and added to ice-cold MeOH (1ml). After centrifugation at 4°C the supernatants were placed in cooled vials on a cold plate (3°C) and aliquots (25 µl) analysed by HPLC using an autosampler. The column used was a C6 (Spherisorb) 15cm x 4.6 mm with a precolumn, and was eluted with MeOH:0.05 M aq. NH₄HCO₃, 55:45, at a flow rate of 1.5 ml min⁻¹. Products were monitored by absorbance at 225 nm. Retention times were: for (10) 11.0 min and for its breakdown product (9) 9.6 min. […] Biological Results. The anti-tumour activities of the compounds of the invention against ADJ/PC6 tumour in mice and against human ovarian tumour cell lines were compared with that of trimelamol (1).

In the case of “2-(Hydroxyethyl)(2,2,2-trifluoroethyl)amino-4-methyl-6-(2,2,2-trifluoroethyl)amino-1,3,5-triazine [Compound 7]”, the Highest % inhibition [1] is reported as 56 (5 x 25) %.
Compound `CN(CO)c1nc(N(C)CO)nc(N(C)CO)n1` [Compound 1, 2,4,6-tris{(hydroxymethyl)(methyl)amino}-1,3,5-triazine, reference compound] has an IC50 [2] of 8.7 µM, an IC50 [3] of 25.9 µM and an IC50 [4] of 41.7 µM. For the same compound, the IC50 [5] was 24.3 µM, the “potency against the ADJ/PC6 tumour cell line in vitro relative to the other compounds” value ([6]; (1) versus (5), (6) and (13)) was “greater than 3 fold” and the IC50 [6] was 10.1 µM. The half-life in humans [7] was “short”, the LD50 [8] was 140 mg/kg and the “Therapeutic Index LD50/ED90” value [1] was 3.1. For the same compound, the ED90 ([1]; Mus musculus) was 45 mg/kg and the Highest % inhibition [1] was 96 (5 x 100) %.
For `FC(F)(F)CNc1nc(NCC(F)(F)F)nc(NCC(F)(F)F)n1` [Compound 3, 2,4,6-Tris[(2,2,2-Trifluoroethyl)amino]-1,3,5-triazine], the LD50 [8] was 71 mg/kg and the Highest % inhibition [1] was “none^b (none - less than 40%)”.
With `OCN(CC(F)(F)F)c1nc(NCC(F)(F)F)nc(NCC(F)(F)F)n1` [Compound 4, 2-(Hydroxymethyl)(2,2,2-trifluoroethyl)amino-4,6-bis[(2,2,2-trifluoroethyl)amino]-1,3,5-triazine] the LD50 [8] was 117 mg/kg and the Highest % inhibition [1] was 40 (5 x 50) %.
For `OCN(CC(F)(F)F)c1nc(N(CO)CC(F)(F)F)nc(N(CO)CC(F)(F)F)n1` [Compound 5, 2,4,6-Tris[(Hydroxymethyl)(2,2,2-trifluoroethyl)amino]-1,3,5-triazine], the IC50 [4] was 48.6 µM, the “activity against cisplatin-resistant cell-lines” value [9] was “high activity” and the IC50 [6] was 38.2 µM. The “potency in a variety of ovarian cell lines compared with (1)” value [10] was “virtually equipotent with (1)”.
Compound `OCOCN(CC(F)(F)F)c1nc(N(CO)CC(F)(F)F)nc(N(CO)CC(F)(F)F)n1` [Compound 6, 2-[([hydroxymethoxy]methyl)(2,2,2-trifluoroethyl)amino]-4,6-bis(hydroxymethyl)(2,2,2-trifluoroethyl)-amino-1,3,5-triazine] has an IC50 [3] of 23.7 µM, an IC50 [5] of 25.8 µM and an IC50 [6] of 34.4 µM. The LD50 [8] was 280 mg/kg and the Highest % inhibition [1] was 65 (5 x 12.5) %.
Compound `CN(C)c1nc(N(C)C)nc(N(CO)CC(F)(F)F)n1` [Compound 10, 2,4-Bis(Dimethylamino)-6-(hydroxymethyl)(2,2,2,trifluoroethyl)-amino-1,3,5-triazine] has a half-life [11] of 45 min.
Work on `C#CCN(CO)c1nc(N(CO)CC#C)nc(N(CO)CC#C)n1` [Compound 13, 2,4,6-Tris[(hydroxymethyl)(propargyl)amino]-1,3,5-triazine] yielded an IC50 [3] of 41.8 µM, an IC50 [4] of 50.7 µM and an IC50 [5] of 48.9 µM. For the same compound, the “activity against cisplatin-resistant cell-lines” value [9] was “high activity”, the IC50 [6] was 36.8 µM and the LD50 [8] was 280 mg/kg. For the same compound, the Highest % inhibition [1] was “none (none - less than 40%)” and the “potency in a variety of ovarian cell lines compared with (1)” value [10] was “virtually equipotent with (1)”.
In the case of `CN(C)c1nc(N(C)C)nc(N(C)CO)n1` [N-hydroxymethylpentamethylmelamine, reference compound], the half-life [11] is reported as 30 min.
